This is an account of results in patent publication US20250066345A1, “COMPOSITIONS AND METHODS OF USE TO TREAT 12-LIPOXYGENASE (12-LOX) MEDIATED DISEASES” (VERALOX THERAPEUTICS, priority 2021, published 2025).

The target of one assay is 12-LOX (Homo sapiens (Human), UniProt P18054). Put plainly: 12-LOX IC50 determination, UV-Vis assay with arachidonic acid substrate. Type of assay: biochemical. The settings on record: 30 nM 12-LOX, 50 μM AA, absorbance of 12-HPETE at 234 nm. As for the experimental part: (§1) The compounds were evaluated for inhibition of 12-LOX, as well as selectivity by measuring inhibition against 15-LOX for some compounds, using a UV-Vis assay. Arachidonic acid (AA) was used as a substrate for 12-LOX and 15-LOX. ML355 was used as the control inhibitor for 12-LOX. ML351 (5-(Methylamino)-2-(1-naphthalenyl)-4-oxazolecarbonitrile) was used as the control inhibitor for 15-LOX.
(§2) Reaction buffers used for the lipoxygenase assay were as follows: 25 mM HEPES (pH 7.5), with 0.01% Triton X-100. 1 mM 12-HPETE or 1 mM 15-HPETE stock solution was prepared in 25 mM HEPES with 0.01% Triton X-100.
The standard curve of 12-HPETE was made by serial dilution of 0, 6.25, 12.5, 25, 50, 75 and 100 μM, and the final reaction volume in 96 Well Clear Flat Bottom UV-Transparent Microplate is 100 μL. The absorbance of the 12-HPETE at each concentration was measured at 234 nm.
(§3) IC50 values were obtained by determining the % inhibition at various inhibitor concentrations. The final concentrations of the control inhibitors and test compounds in the IC50 determination assay are 0, 0.03, 0.1, 0.3, 1, 3, 10 and 20 μM. The final concentration of DMSO in the assay is 0.05%.
12-LOX IC50 determination. The 12-LOX enzyme and AA were diluted in the HEPES buffer to 120 nM and 200 μM, respectively. Pre-incubation 50 μL of indicated test compounds and 25 μL 120 nM enzyme at room temperature for 5 min. The reaction is started by adding 25 μL 200 μM AA. After a short spin (1000 rpm, 15 s), incubate the reaction system for 5 min. The blank control was set by adding 25 μL HEPES to 50 μL of control inhibitor compound (MHL355) and 25 μL 200 μM AA. The final concentrations of 12-LOX enzyme and AA were 30 nM and 50 μM, respectively. The absorbance of the 12-HPETE at 234 nm was measured.
(§4) The IC50 value was calculated by using GraphPad Prism 8.0.2.
(§5) The IC50 values are calculated with remaining activity (%) and logarithm of inhibitor concentrations.
(§6) Remaining Activity (%)=OD value inhibitor/OD value vehicle×100

A further assay deals with 15-LOX (Homo sapiens (Human), UniProt P16050). Nature of the assay: 15-LOX IC50 determination, UV-Vis assay with arachidonic acid substrate (selectivity). The settings on record: selectivity for 12-LOX over 15-LOX; 120 nM 15-LOX, AA substrate. Format: biochemical. As to the method:
as §1, §2
The standard curve of 15-HPETE was made by serial dilution of 0, 3.125, 6.25, 12.5, 25, 50 and 100 μM, and the final reaction volume in 96 Well Clear Flat Bottom UV-Transparent Microplate is 100 μL. The absorbance of the […] at each concentration was measured at 234 nm.
as §3
15-LOX IC50 determination. The 15-LOX enzyme and AA were diluted in the HEPES buffer to 480 nM and 200 μM, respectively. Pre-incubation 50 μL of indicated test compounds and 25 μL 480 nM enzyme at room temperature for 5 min. The reaction is started by adding 25 μL 200 μM AA. After a short spin (1000 rpm, 15 s), incubate the reaction system for 3 min. The blank control was set by adding 25 μL HEPES to 50 μL of control inhibitor compound (MHL355) and 25 μL 200 μM AA. The final concentrations of 15-LOX enzyme and AA were 120 nM and 50 µM, respectively. The absorbance of the 15-HPETE at 234 nm was measured. The assay was performed in duplicate.
as §4, §5, §6

Sequence of 15-LOX (P16050 whole entry): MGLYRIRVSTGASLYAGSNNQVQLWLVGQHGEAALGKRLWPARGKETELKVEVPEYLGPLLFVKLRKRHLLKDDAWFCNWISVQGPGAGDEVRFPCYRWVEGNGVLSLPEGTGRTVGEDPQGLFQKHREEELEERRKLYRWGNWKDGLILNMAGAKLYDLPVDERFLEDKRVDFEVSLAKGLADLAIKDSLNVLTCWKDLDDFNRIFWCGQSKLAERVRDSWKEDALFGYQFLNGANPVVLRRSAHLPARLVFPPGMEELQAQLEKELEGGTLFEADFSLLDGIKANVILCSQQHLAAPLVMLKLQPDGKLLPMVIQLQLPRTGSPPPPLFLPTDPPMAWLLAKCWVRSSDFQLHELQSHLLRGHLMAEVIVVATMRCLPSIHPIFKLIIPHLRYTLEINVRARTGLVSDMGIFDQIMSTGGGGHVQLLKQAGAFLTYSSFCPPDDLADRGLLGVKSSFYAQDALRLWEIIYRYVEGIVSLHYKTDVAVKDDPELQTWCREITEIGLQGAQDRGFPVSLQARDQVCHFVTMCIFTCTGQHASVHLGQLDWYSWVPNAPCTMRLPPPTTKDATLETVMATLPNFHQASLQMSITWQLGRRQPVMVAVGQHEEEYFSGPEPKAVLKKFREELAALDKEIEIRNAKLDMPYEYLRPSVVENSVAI
Sequence of 12-LOX (P18054 whole entry): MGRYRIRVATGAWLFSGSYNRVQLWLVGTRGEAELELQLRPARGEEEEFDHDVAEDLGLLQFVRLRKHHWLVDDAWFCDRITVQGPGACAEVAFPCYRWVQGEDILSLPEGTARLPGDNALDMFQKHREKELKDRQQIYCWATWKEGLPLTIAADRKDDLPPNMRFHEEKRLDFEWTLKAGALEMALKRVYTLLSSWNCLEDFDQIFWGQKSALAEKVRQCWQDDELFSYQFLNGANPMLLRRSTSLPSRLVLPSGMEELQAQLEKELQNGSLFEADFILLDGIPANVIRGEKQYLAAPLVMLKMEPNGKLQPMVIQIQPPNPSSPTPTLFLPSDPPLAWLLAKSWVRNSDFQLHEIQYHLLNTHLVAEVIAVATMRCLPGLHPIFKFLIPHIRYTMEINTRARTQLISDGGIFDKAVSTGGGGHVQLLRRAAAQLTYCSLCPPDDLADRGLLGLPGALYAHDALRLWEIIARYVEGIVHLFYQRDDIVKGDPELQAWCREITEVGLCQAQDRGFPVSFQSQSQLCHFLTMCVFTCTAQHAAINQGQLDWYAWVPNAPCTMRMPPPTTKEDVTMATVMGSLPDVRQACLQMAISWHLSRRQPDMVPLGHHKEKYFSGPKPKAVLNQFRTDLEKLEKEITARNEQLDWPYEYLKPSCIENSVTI

By IC50 is commonly meant the concentration at which inhibition is half-maximal. Take `COc1cccc(CNc2ccc(S(=O)(=O)Nc3nc(-c4ccc(F)c(F)c4)c(F)s3)nc2)c1O` [Compound I-6]: at 12-LOX, the IC50 is less than 250 nM. Further, at 15-LOX, the “Selectivity over 15-LOX” value was >50-fold. For `[2H]C([2H])([2H])Oc1cccc(CNc2cnc(S(=O)(=O)Nc3nc(-c4ccc(Cl)c(F)c4)c(F)s3)c(C)c2)c1O` [Compound I-48] the same measures were less than 250 nM and >50-fold. For `[2H]C([2H])([2H])Oc1cccc(CNc2ccc(S(=O)(=O)Nc3nc(-c4ccc(Cl)c(F)c4)c(F)s3)nc2)c1O` [Compound I-49] the same measures were less than 250 nM and >50-fold. Take `COc1cccc(CNc2ccc(S(=O)(=O)Nc3nc(-c4ccc(Cl)c(F)c4)c(F)s3)nc2)c1O` [Compound I-2]: the IC50 against 12-LOX is less than 250 nM. In addition, at 15-LOX, the “Selectivity over 15-LOX” value is recorded as >50-fold. In the same order, the values of `[2H]C([2H])([2H])Oc1cccc(CNc2cnc(S(=O)(=O)Nc3nc(-c4ccc(Cl)c(F)c4)c(F)s3)c(C([2H])([2H])[2H])c2)c1O` [Compound I-47] are more than 1000 nM and <20-fold.

`COc1cccc(CNc2ccc(S(=O)(=O)Nc3nc(-c4ccc(C(F)(F)F)c(F)c4)c(F)s3)nc2)c1O` [Compound I-25] displayed an IC50 against 12-LOX of less than 250 nM. The “Selectivity over 15-LOX” value at 15-LOX is >50-fold.

The compound `COc1cccc(CNc2ccc(S(=O)(=O)Nc3nc(-c4ccc(F)c(Cl)c4)c(CO)s3)nc2)c1O` [Compound I-24] displayed an IC50 at 12-LOX of less than 250 nM. In addition, the “Selectivity over 15-LOX” value on 15-LOX is listed as >50-fold. The compound `COc1cccc(CNc2ccc(S(=O)(=O)Nc3nc(-c4ccc(C(C)C)cc4)cs3)nc2)c1O` [Compound I-4] yielded an IC50 on 12-LOX of less than 250 nM. Besides, the “Selectivity over 15-LOX” value at 15-LOX is given as >50-fold. In turn, `[2H]C([2H])([2H])Oc1cccc(CNc2cnc(S(=O)(=O)Nc3nc(-c4ccc(F)c(F)c4)c(F)s3)c(C)c2)c1O` [Compound I-50] displayed an IC50 against 12-LOX of 250 to 1000 nM. Further, at 15-LOX, the “Selectivity over 15-LOX” value is >50-fold. `COc1cccc(CNc2cnc(S(=O)(=O)Nc3nc(-c4ccc(Cl)c(F)c4)c(F)s3)c(C)c2)c1O` [Compound I-23] displayed an IC50 against 12-LOX of less than 250 nM. For the same compound, the “Selectivity over 15-LOX” value at 15-LOX is >50-fold. In the same order, the values of `COc1cccc(CNc2cnc(S(=O)(=O)Nc3nc(-c4ccc(F)c(F)c4)c(F)s3)c(C(F)(F)F)c2)c1O` [Compound I-22] are more than 1000 nM and <10-fold.

On 12-LOX, `COc1cccc(CNc2ccc(S(=O)(=O)Nc3nc(-c4ccc(C(F)(F)F)c(F)c4)cs3)nc2)c1O` [Compound I-12] showed an IC50 of less than 250 nM. For the same compound, on 15-LOX, the “Selectivity over 15-LOX” value is listed as >50-fold. In the same order, the values of `COc1cccc(CNc2ccc(S(=O)(=O)Nc3nc4c(ccc5ccccc54)s3)nc2)c1O` [Compound I-13] are less than 250 nM and >50-fold. `COc1cccc(CNc2ccc(S(=O)(=O)Nc3nc(-c4ccc(F)c(Cl)c4)cs3)nc2)c1O` [Compound I-9] registered an IC50 at 12-LOX of 250 to 1000 nM. Moreover, at 15-LOX, the “Selectivity over 15-LOX” value is on record as >50-fold. In the same order, the values of `[2H]C([2H])([2H])Oc1cccc(CNc2cnc(S(=O)(=O)Nc3nc(-c4ccc(F)c(Cl)c4)c(F)s3)c(C)c2)c1O` [Compound I-51] are less than 250 nM and >50-fold.

The compound `COc1cccc(CNc2cnc(S(=O)(=O)Nc3nc(-c4ccc(F)c(Cl)c4)c(F)s3)cc2C)c1O` [Compound I-15] registered an IC50 against 12-LOX of more than 1000 nM. Further, at 15-LOX, the “Selectivity over 15-LOX” value is <10-fold. On to `COc1cccc(CNc2ccc(S(=O)(=O)Nc3nc4ccccc4s3)nc2)c1O` [Compound I-10], for which the half-maximal inhibitory concentration (IC50) against 12-LOX is more than 1000 nM.

As for `COc1cccc(CN(C)c2ccc(S(=O)(=O)Nc3nc(-c4ccc(F)c(F)c4)c(F)s3)nc2)c1O` [Compound I-11], the IC50 against 12-LOX lay in the range of 250 to 1000 nM. Further, the “Selectivity over 15-LOX” value at 15-LOX is on record as >20-fold. For `COc1cccc(CNc2cnc(S(=O)(=O)Nc3nc(-c4ccc(F)c(Cl)c4)cs3)c(C)c2)c1O` [Compound I-41] the same measures were less than 250 nM and >50-fold.

At 12-LOX, `COc1cccc(CNc2cnc(S(=O)(=O)Nc3nc(-c4ccc(F)c(F)c4)cs3)c(C)c2)c1O` [Compound I-39] showed an IC50 of less than 250 nM. For the same compound, the “Selectivity over 15-LOX” value on 15-LOX was >50-fold.

As to `COc1cccc(CNc2cnc(S(=O)(=O)Nc3nc(-c4ccc(F)c(Cl)c4)c(F)s3)c(C3CC3)c2)c1O` [Compound I-43], the half-inhibitory concentration (IC50) at 12-LOX was more than 1000 nM. For the same compound, the “Selectivity over 15-LOX” value at 15-LOX was <20-fold.

As for `COc1cccc(CNc2ccc(S(=O)(=O)Nc3nc(-c4ccc(F)c(Cl)c4)c(F)s3)nc2)c1O` [Compound I-1], the IC50 against 12-LOX is less than 250 nM. The “Selectivity over 15-LOX” value on 15-LOX is recorded as >50-fold. For `Cc1cc(NCc2cccc(OC(F)(F)F)c2O)cnc1S(=O)(=O)Nc1nc(-c2ccc(F)c(Cl)c2)c(F)s1` [Compound I-45] the same measures were more than 1000 nM and <20-fold. Regarding `COc1cccc(CNc2ccc(S(=O)(=O)Nc3nc(-c4ccc(C5CC5)cc4)cs3)nc2)c1O` [Compound I-5], the IC50 against 12-LOX is less than 250 nM. Also, the “Selectivity over 15-LOX” value on 15-LOX is recorded as >50-fold. In the same order, the values of `COc1cccc(CNc2cnc(S(=O)(=O)Nc3nc(-c4ccc(F)c(Cl)c4)c(F)s3)c(C)c2)c1O` [Compound I-16] are less than 250 nM and >50-fold.

In the case of `COc1cccc(CNc2cnc(S(=O)(=O)Nc3nc(-c4ccc(F)c(Cl)c4)c(F)s3)c(C(F)(F)F)c2)c1O` [Compound I-17], on 12-LOX, the IC50 was less than 250 nM. On 15-LOX, the “Selectivity over 15-LOX” value was >20-fold. For `COc1cccc(CNc2cnc(S(=O)(=O)Nc3nc(-c4ccc(Cl)c(F)c4)cs3)c(C)c2)c1O` [Compound I-40], the IC50 on 12-LOX was less than 250 nM. The “Selectivity over 15-LOX” value on 15-LOX is on record as >50-fold.

For `COc1cccc(CNc2cnc(S(=O)(=O)Nc3nc(-c4ccc(F)c(Cl)c4)c(F)s3)c(-c3ccccc3)c2)c1O` [Compound I-42], the IC50 against 12-LOX is less than 250 nM. For the same compound, the “Selectivity over 15-LOX” value at 15-LOX is >50-fold. As for `COc1cccc(CNc2ccc(S(=O)(=O)Nc3nc(-c4ccc(F)c(Cl)c4)c(F)s3)nc2C)c1O` [Compound I-14], on 12-LOX, the IC50 is 250 to 1000 nM. Besides, the “Selectivity over 15-LOX” value at 15-LOX was ~10-fold. In the same order, the values of `CCOc1cccc(CNc2cnc(S(=O)(=O)Nc3nc(-c4ccc(F)c(Cl)c4)c(F)s3)c(C)c2)c1O` [Compound I-46] are more than 1000 nM and <20-fold. In the same order, the values of `COc1cccc(CNc2ccc(S(=O)(=O)Nc3nc(-c4ccc(Cl)c(F)c4)cs3)nc2)c1O` [Compound I-8, N-(4-(4-chloro-3-fluorophenyl)thiazol-2-yl)-5-((2-hydroxy-3-methoxybenzyl)amino)pyridine-2-sulfonamide] are less than 250 nM and >50-fold.

Consider `COc1cccc(CNc2ccc(S(=O)(=O)Nc3nc(-c4ccc(F)c(F)c4)cs3)nc2)c1O` [Compound I-7], for which, at 12-LOX, the IC50 is less than 250 nM. For the same compound, the “Selectivity over 15-LOX” value at 15-LOX is >50-fold. `COc1cccc(CN(C)c2cnc(S(=O)(=O)Nc3nc(-c4ccc(F)c(F)c4)cs3)c(C)c2)c1O` [Compound I-19] came in with an IC50 against 12-LOX of more than 1000 nM. The compound `COc1cccc(CNc2cnc(S(=O)(=O)Nc3nc(-c4ccc(F)c(F)c4)c(F)s3)c(C)c2)c1O` [Compound I-18, N-(4-(3,4-difluorophenyl)-5-fluorothiazol-2-yl)-5-((2-hydroxy-3-methoxybenzyl)amino)-3-methylpyridine-2-sulfonamide] displayed an IC50 against 12-LOX of less than 250 nM. In addition, the “Selectivity over 15-LOX” value at 15-LOX is >50-fold.

The compound `COc1cccc(CNc2ccc(S(=O)(=O)Nc3nc(-c4ccc(C(C)C)cc4)c(F)s3)nc2)c1O` [Compound I-3] displayed an IC50 on 12-LOX of less than 250 nM. Besides, the “Selectivity over 15-LOX” value on 15-LOX is given as >20-fold.
